{
  "source": "paper PMC2376372",
  "about": "“3-Bromophenyl 6-acetoxymethyl-2-oxo-2H-1-benzopyran-3-carboxylate inhibits cancer cell invasion in vitro and tumour growth in vivo” (British Journal of Cancer, 2003)",
  "key": {"HMW-uPA": {"target": "T1, HMW-uPA (Homo sapiens, UniProt P00749)", "T1 construct": "purchased Choay", "assay": "Inhibition of purified HMW-uPA", "format": "biochemical", "details": "purified enzyme, pH 7.5, 25°C", "protocol": "Bovine α-CT and LMW-uPA (MW=33 000 Da) were purchased from Sigma, HMW-uPA (MW=54 000 Da) from Choay, trypsin (TRY) and THR from Boehringer-Indelheim (Germany), and MMP-2 and MMP-9 from Calbiochem. Human leucocyte elastase and PM were from Elastase Products Co. and Biogenic, respectively. Except for THR, HMW-uPA, MMP-2 and MMP-9, enzyme concentrations were determined by active-site titrations using the appropriate titrant ([Bender et al, 1966]; [Chase and Shaw, 1970]; [Powers and Gupton, 1977]). Several enzymes were assayed spectrophotometrically at 405 nm using the following p-nitroanilide substrates: succininyl-Ala2-Pro-Phe-p-nitroanilide (Suc-AAPF-p-NA), benzoyl-Arg-p-nitroanilide (Bz-R-p-NA) and methoxysuccinyl-Ala2-Pro-Val-p-nitroanilide (MeO-Suc-AAPV-p-NA) for α-CT, TRY and HLE, respectively (obtained from Sigma); or S-2238 ([…]), S-2444 (<Glu-Gly-Arg-p-nitroanilide) and S-2251 (H-D-Val-Leu-Lys-p-nitroanilide) for THR, HMW- and LMW-uPA, and PM, respectively (from Biogenic). Matrix metalloprotease-2 previously activated by treatment with APMA were assayed at 412 nm with the thiopeptide Ac-Pro-Leu-Gly-^Sleu-Leu-Gly-Oet in the presence of 5,5′-dithiobis(2-nitrobenzenic) acid (DTNB). […]"}, "MMP-2 and MMP-9": {"test_system": "MMP-2 and MMP-9", "assay": "Gelatin zymography of HT1080 conditioned medium", "format": "biochemical, human", "details": "1–100 μM in HT1080 conditioned medium", "protocol": "The culture medium of human fibrosarcoma HT1080 cells (DMEM) was removed and concentrated 20-fold in a Vivaspin 6 ml concentrator. It was incubated for 30 min at ambient temperature in nonreducing sample buffer and run under Laemmli conditions ([Laemmli, 1970]) by loading a volume of 25 μl onto 7.5% polyacrylamide gels containing 0.1% sodium dodecyl sulphate (SDS), 2 mg ml^−1 casein and 0.16 μM human plasminogen. Following electrophoresis, gels were incubated for 1 h in 2.5% (v v^−1) Triton X-100 for removal of SDS and then for 1 h at 37°C in 50 mM Tris-HCl, 0.1 M NaCl, pH 7.6. Plasminogen activator (PA) activity was visualised as clear bands of lysis upon staining with 0.1% Coomassie blue R250. Purified human high-molecular-weight two-chain urokinase plasminogen activator (HMW-uPA) and low-molecular-weight urokinase plasminogen activator (LMW-uPA) were run in each gel as positive controls. An analogous protocol was followed to detect enzymatic activities towards MMP-2 and MMP-9 except that the 7% SDS–PAGE contained 1 mg ml^−1 bovine gelatin. The gels were incubated at 37°C for about 18 h in 5 mM Tris, pH 7.6 containing 0.2 M NaCl, 5 mM CaCl2 and 0.02 (w v^−1) Brij35. Protein staining was performed during 1 h with a 0.25% solution of Coomassie brillant blue R250 in 50% methanol and 7% acetic acid and destaining in a solution of 20% methanol and […]. […]"}, "HT1080 cells": {"test_system": "HT1080 cells", "assay": "Tumorigenicity of HT1080 cells injected s.c. with matrigel in nude mice", "format": "in vivo", "details": "30 mg kg^−1 i.p. three times per week; for effect on tumour growth (tumour volume), HT1080: ANOVA; for time after cell inoculation to reach a tumour incidence of 50%: tumours higher than 80 mm^3", "protocol": "Matrigel (basement membrane proteins) was extracted from the mouse Engelbreth–Holm–Swarm (EHS) tumour as previously described ([Noël et al, 1991]). Tumoral cells were detached by trypsinisation, harvested by centrifugation, resuspended in 0.25 ml of serum-free medium and mixed with an equal volume of cold matrigel (10 mg ml^−1). The suspension (1 × 10^6 cells injection site^−1) was injected subcutaneously (s.c.) on both body flanks of 6–8-week-old female athymic nude mice (n=6; nu/nu Swiss mice from Iffa credo, L'Arbresle, France). The coumarin derivatives in PBS were injected intraperitoneally (30 mg kg^−1) three times per week during the whole assay.\nThe tumorigenicity defines the capacity of cells to induce tumour formation. The larger (a) and smaller (b) diameters of the apparent tumour were measured and served for tumour volume calculation according to a × b^2 × 0.4 ([Attia and Weiss, 1966]). Injected mice were examined weekly. Tumours presenting a volume higher than 80 mm^3 and which maintained a progressive growth were taken into account ([Noël et al, 1992]). Results are expressed as the mean (±s.e.m.) of the tumour volumes."}},
  "data": [
    {"smiles": "CC(=O)OCc1ccc2oc(=O)c(C(=O)Oc3cccc(Cl)c3)cc2c1", "note": "[compound 4, 3-chlorophenyl 6-acetoxymethyl-2-oxo-2H-1-benzopyran-3-carboxylate]", "values": [
      {"measurement": "inhibition of HMW-uPA", "setting": "HMW-uPA", "value": "not affected"},
      {"measurement": "effect on gelatinolytic activities of conditioned culture medium (gelatin zymography)", "setting": "MMP-2 and MMP-9", "value": "did not abrogate"},
      {"measurement": "effect on tumour growth (tumour volume), HT1080", "setting": "HT1080 cells", "value": "did not significantly affect tumour growth"},
      {"measurement": "time after cell inoculation to reach a tumour incidence of 50%", "setting": "HT1080 cells", "value": 26, "unit": "days"}
    ]},
    {"smiles": "CC(=O)OCc1ccc2oc(=O)c(C(=O)Oc3cccc(Br)c3)cc2c1", "note": "[compound 7, 3-bromophenyl 6-acetoxy-methyl-2-oxo-2H-1-benzopyran-3-carboxylate]", "values": [
      {"measurement": "inhibition of HMW-uPA", "setting": "HMW-uPA", "value": "not affected"},
      {"measurement": "effect on gelatinolytic activities of conditioned culture medium (gelatin zymography)", "setting": "MMP-2 and MMP-9", "value": "did not abrogate"},
      {"measurement": "effect on tumour growth (tumour volume), HT1080", "setting": "HT1080 cells", "value": "significantly reduced the tumour growth"},
      {"measurement": "effect on tumour incidence, HT1080", "setting": "HT1080 cells; log Rank test, P<0.004", "value": "reduce both the incidence"},
      {"measurement": "time after cell inoculation to reach a tumour incidence of 50%", "setting": "HT1080 cells", "value": 48, "unit": "days"}
    ]}
  ]
}
